Laboratory results reported in patent US20050202424A1, “Regulators of biofilm formation and uses thereof” (priority 2001, published 2005).
Values after ≈ are worked out from the molar mass of the structure shown.

How the values were obtained:
[1] = tested on: PA14 RSCV; assay: Resistance of PA14 RSCV colonies to antibiotics on plates; assay type: cell-based, Pseudomonas aeruginosa; conditions: for resistance of PA14 RSCV colonies: 8 individual colonies
Procedure: To induce such phenotypic variants, an overnight culture of P. aeruginosa strain PA14 (UCBPP-PA14) was inoculated onto Luria-Bertani (LB) containing 200 μg/ml of kanamycin, incubated at 37° C. for 48 hours, at which time, antibiotic resistant rough small variants were isolated. Antibiotic resistant colonies arose at a frequency of 10^−6-10^−7. […] In addition to being resistant to kanamycin, (up to 40 times the susceptibility level of the wild-type), 8 individual PA14 RSCV colonies tested were also resistant to amikacin (30 μg/ml), carbenicillin (300 μg/ml), gentamicin (30 μg/ml), tobramycin (10 μg/ml), and tetracycline (150 μg/ml). Consistent with this latter result, antibiotic resistant variants were also obtained at frequencies of about 10^−7 by plating overnight cultures of PA14 on media containing similar concentrations of the antibiotics mentioned above.

[2] = tested on: P. aeruginosa small colony variants in CF sputum samples; assay: Antibiotic resistant small colony variants in CF sputum samples plated on cetrimide agar with and without antibiotics; assay type: cell-based, Pseudomonas aeruginosa
Procedure: Five CF sputum samples from the Clinical Microbiology Laboratory at Massachusetts General Hospital were suspended in 5 ml of 10 mM MgSO4. Serial dilutions of the samples were then plated onto cetrimide agar plates with and without antibiotics. The plates were screened for the presence of P. aeruginosa after 24 and 48 hours of incubation at 37° C. The identity of the colonies was later confirmed by probing colony lifts with the exotoxin A gene from P. aeruginosa. To this end, the EcoRI-HindIII fragment of plasmid pRGI containing the exoA gene (Samadpour et al., J. Clin. Microbiol. 26:2319-23, 1988) was gel isolated and labeled using a random priming kit (Boehringer, Mannheim, Indianapolis, Ind.). Colonies were transferred to nylon membranes and hybridizations were performed according to the manufacturer's recommendations (NEN Research Products, Boston, Mass.). Identification of colonies carrying the exoA gene was then performed using a Phosphorimager (Amersham Pharmacia Biotech Inc., Piscataway, N.J.).
The presence of P. aeruginosa antibiotic resistant small colony variants was determined by plating CF sputum samples on cetrimide agar with and without the indicated antibiotics. […]

[3] = tested on: wild-type PA14; assay: Minimal inhibitory concentration of kanamycin in liquid culture; assay type: cell-based; conditions: Pseudomonas aeruginosa; PA14 in M63 liquid medium; read-out: concentration of kanamycin required to inhibit growth (MIC)
Procedure: Phenotypic variation is a common phenomenon in Gram-negative bacteria that often involves environmentally regulated changes in observable phenotypes produced by modifications in surface components. The effect that different environmental stimuli had on the appearance of kanamycin-resistant phenotypic variants was examined. Bacteria were grown in LB broth, or in supplemented LB with appropriate antibiotics at the indicated temperature with aeration. […] Moreover, the frequency of variants increased 200-fold when plates were incubated at 25° C. compared to 37° C. (FIG. 2A). Finally, a dramatic 10^6-fold increase was obtained on minimal M63 salts as compared to LB medium (FIG. 2A). Minimal salt media consisted of M63 supplemented with 0.3% glucose, 1 mM MgSO4, and 0.5% casamino acids. Importantly, there was a correlation between the frequency of appearance of kanamycin resistant variants on plates and minimal inhibitory concentrations (MICs) of kanamycin in liquid culture for the wild-type PA14 using the culture conditions described above (FIG. 2B).

[4] = tested on: PA14 and PA14 RSCV biofilms; assay: Biofilm resistance to tobramycin in flow chambers (viable biomass by CSLM of GFP-tagged cells); assay type: cell-based, Pseudomonas aeruginosa; conditions: continuous flow of tobramycin 200 μg/ml on established biofilms
Procedure: To determine whether the antibiotic resistant phenotype of PA14 RSCV is associated with altered biofilm formation, PA14 RSCV was cultured under biofilm-forming conditions as follows. For biofilm characterization, PA14 RSCV biofilms were cultivated under continuous culture conditions in flow-chambers with channel dimensions of 12 by 52 by 2 mm. Flow media consisted of M63 supplemented with 0.5% casamino acids and 0.3% glucose. For measurement of biofilm resistance, bacteria were cultivated in flow-chambers with channel dimensions of 1 by 40 by 4 mm (Stovall Inc., Greensboro, N.C.). In this case, flow media consisted of FAB medium (0.1 mM CaCl2, 0.01 mM Fe-EDTA, 0.15 mM NH4SO4, 0.33 mM Na2HPO4, 0.2 mM KH2PO4 and 1 mM MgCl2) supplemented with casamino acids (0.5%) and sodium citrate (10 mM). Flow-cells in both cases were inoculated with 100-fold dilutions of overnight cultures of PA14 and PA14 RSCV carrying the green fluorescent protein (GFP) in plasmid SMC21, a derivative of pSMC2 (Bloemberg et al., Appl. Environ. Microbiol. 63: 4543-4551, 1997). […] The volume (in μm^3) of individual biofilm structures was determined from serial sections using ImageSpace software (Molecular Dynamics, Sunnyvale, Calif.).
Viable biomass was measured by CSLM analysis of GFP-tagged PA14 and PA14 RSCV cells using GFP expression as a viability marker as described previously (FIG. 1E).

[5] = Sample 5, patient on Amikacin(IV)/Ceftazidime(IV)
[6] = Sample 38, patient on Tobramycin (I)/Levofloxacin
[7] = Sample 41, no antibiotic treatment
[8] = Sample 42, no antibiotic treatment
[9] = Sample 43, no antibiotic treatment

Molecule | resistance of PA14 RSCV colonies ([1]; amikacin 30 μg/ml) | Variants resistant to antibiotic (%) [2, 5] [%] | Variants resistant to antibiotic (%) [2, 6] [%] | Variants resistant to antibiotic (%) [2, 7] [%] | Variants resistant to antibiotic (%) [2, 8] [%] | Variants resistant to antibiotic (%) [2, 9] [%] | resistance of PA14 RSCV colonies ([1]; carbenicillin 300 μg/ml) | resistance to kanamycin relative to the susceptibility level of the wild-type ([1]; PA14 RSCV colonies) | MIC [3] [µg/mL] | resistance of PA14 RSCV colonies ([1]; tobramycin 10 μg/ml) | resistance of PA14 RSCV biofilm to tobramycin treatment versus wild-type PA14 biofilm [4] | resistance of PA14 RSCV colonies ([1]; gentamicin 30 μg/ml)
NCC[C@H](O)C(=O)N[C@@H]1C[C@H](N)[C@@H](O[C@H]2O[C@H](CN)[C@@H](O)[C@H](O)[C@H]2O)[C@H](O)[C@H]1O[C@H]1O[C@H](CO)[C@@H](O)[C@H](N)[C@H]1O [amikacin] | resistant | 100 | 100 | 15 | 5 | 0.2 | – | – | – | – | – | –
CC1(C)S[C@@H]2[C@H](NC(=O)C(C(=O)O)c3ccccc3)C(=O)N2[C@H]1C(=O)O (some centres unmarked) [carbenicillin] | – | – | – | – | – | – | resistant | – | – | – | – | –
NC[C@H]1O[C@H](O[C@H]2[C@H](O)[C@@H](O[C@H]3O[C@H](CO)[C@@H](O)[C@H](N)[C@H]3O)[C@H](N)C[C@@H]2N)[C@H](O)[C@@H](O)[C@@H]1O [kanamycin] | – | – | – | – | – | – | – | up to 40 times | 475 (≈ 980 µM) | – | – | –
CN(C)[C@@H]1C(O)=C(C(N)=O)C(=O)[C@@]2(O)C(O)=C3C(=O)c4c(O)cccc4[C@@](C)(O)[C@H]3C[C@@H]12 [tetracycline] | – | 30 | 32 | 0 | 0 | – | – | – | – | – | – | –
NC[C@H]1O[C@H](O[C@H]2[C@H](O)[C@@H](O[C@H]3O[C@H](CO)[C@@H](O)[C@H](N)[C@H]3O)[C@H](N)C[C@@H]2N)[C@H](N)C[C@@H]1O [tobramycin] | – | 50 | 100 | 0.10 | 0 | 0.5 | – | – | – | resistant | more resistant | –
gentamicin | – | 100 | 100 | 10 | 6.6 | 0.5 | – | – | – | – | – | resistant
